Assay results as given in US9695155B2, “Herbicidal substituted pyrimidinyloxy benzene compounds” (E. I. DU PONT DE NEMOURS AND COMPANY, priority 2013, dated 2017).

Assays:
[1] = tested on: morningglory; experiment: Test A preemergence; assay type: in vivo, Ipomoea spp.
Outline: (§1)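 Greenhouse pot test, loam/sand soil. Formulation: non-phytotoxic solvent mix plus surfactant. Pre: directed spray onto soil after sowing. Post: plants at 1–2 leaf, 2–10 cm. Rated visually vs untreated controls at ~10 d, 0 (no effect) to 100 (complete control).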

[2] = tested on: velvetleaf; experiment: Test A preemergence; assay type: in vivo, Abutilon theophrasti
Outline: as §1

[3] = tested on: wheat; experiment: Test A preemergence; assay type: in vivo, Triticum aestivum
Outline: as §1

[4] = tested on: morningglory; experiment: Test A postemergence; assay type: in vivo, Ipomoea spp.
Outline: as §1

[5] = tested on: velvetleaf; experiment: Test A postemergence; assay type: in vivo, Abutilon theophrasti
Outline: as §1

[6] = tested on: wheat; experiment: Test A postemergence; assay type: in vivo, Triticum aestivum
Outline: as §1

[7] = tested on: sedge, umbrella; experiment: Test B flooded paddy test; assay type: in vivo, Cyperus difformis; conditions: Flood, 250 g ai/ha, 0 to 100 scale where 0 is no effect and 100 is complete control
Outline: (§2)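 Scores from 0 (no effect) to 100 (complete control) are visual comparisons with controls, taken 13 to 15 days after compound was applied into floodwater 3 cm deep around 2-leaf plants.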

[8] = tested on: Heteranthera limosa; experiment: Test B flooded paddy test; assay type: in vivo; conditions: Flood, 250 g ai/ha, 0 to 100 scale where 0 is no effect and 100 is complete control
Outline: as §2

[9] = tested on: pigweed; experiment: Test C postemergence; assay type: in vivo, Amaranthus retroflexus; conditions: Amaranthus retroflexus, post-emergence
From the text: Seeds of plant species selected from blackgrass (Alopecurus myosuroides), Italian ryegrass (Lolium multiflorum), wheat, winter (winter wheat, Triticum aestivum), galium (catchweed bedstraw, Galium aparine), corn (Zea mays), large (Lg) crabgrass (Digitaria sanguinalis), giant foxtail (Setaria faberii), johnsongrass (Sorghum halepense), lambsquarters (Chenopodium album), morningglory (Ipomoea coccinea), yellow nutsedge (Cyperus esculentus), pigweed (Amaranthus retroflexus), ragweed (common ragweed, Ambrosia elatior), soybean (Glycine max), barnyardgrass (Echinochloa crus-galli), oilseed rape (Brassica napus), waterhemp (common waterhemp, Amaranthus rudis), kochia (Kochia scoparia), wild oat (Avena fatua), surinam grass (Brachiaria decumbens), foxtail, green (green foxtail, Setaria viridis), goosegrass (Eleusine indica), bromegrass, downy (downy bromegrass, Bromus tectorum), nightshade (eastern black nightshade, Solanum ptycanthum), cocklebur (common cocklebur, Xanthium strumarium), cupgrass, woolly (woolly cupgrass, Eriochloa villosa), bermudagrass (Cynodon dactylon), sunflower, (common oilseed sunflower, Helianthus annuus), Russian thistle (Salsola kali), and velvetleaf (Abutilon theophrasti) were planted into a blend of loam soil and sand and treated preemergence with test chemicals formulated in a non-phytotoxic solvent mixture which included a surfactant.
At the same time, plants selected from these crop and weed species and also barley, winter (winter barley, Hordeum vulgare), windgrass (Apera spica-venti), chickweed (common chickweed, Stellaria media), deadnettle (henbit deadnettle, Lamium amplexicaule), and canarygrass (littleseed canarygrass, Phalaris minor) were planted in pots containing Redi-Earth® planting medium (Scotts Company, 14111 Scottslawn Road, Marysville, Ohio 43041) comprising spaghnum peat moss, vermiculite, wetting agent and starter nutrients and treated with postemergence applications of test chemicals formulated in the same manner. Plants ranged in height from 2 to 18 cm (1- to 4-leaf stage) for postemergence treatments. Treated plants and controls were maintained in a greenhouse for 13 to 15 days, after which time all species were compared to controls and visually evaluated. Plant response ratings, summarized in Table C, are based on a scale of 0 to 100 where 0 is no effect and 100 is complete control. A dash (-) response means no test result.

[10] = tested on: blackgrass; experiment: Test C preemergence; assay type: in vivo, Alopecurus myosuroides; conditions: for Blackgrass plant response rating: preemergence
Outline: (§3)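 Injury was assessed visually against controls 13 to 15 days after application, with 0 meaning no effect and 100 full control; missing entries are shown as a dash. Preemergence sprays hit seeded loam–sand soil, postemergence sprays hit 1- to 4-leaf plants.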

[11] = tested on: Italian ryegrass; experiment: Test C preemergence; assay type: in vivo, Lolium multiflorum; conditions: for Ryegrass, Italian plant response rating: preemergence
Outline: as §3

[12] = tested on: wheat, winter; experiment: Test C preemergence; assay type: in vivo, Triticum aestivum; conditions: for Wheat plant response rating: preemergence
Outline: as §3

[13] = tested on: johnsongrass; experiment: Test C preemergence; assay type: in vivo, Sorghum halepense; conditions: for Johnsongrass plant response rating: preemergence
Outline: as §3

[14] = tested on: ragweed; experiment: Test C preemergence; assay type: in vivo, Ambrosia elatior; conditions: for Ragweed plant response rating: preemergence
Outline: as §3

[15] = tested on: velvetleaf; experiment: Test C preemergence; assay type: in vivo, Abutilon theophrasti; conditions: for Velvetleaf plant response rating: preemergence
Outline: as §3

[16] = 500 g ai/ha, 0 to 100 scale where 0 is no effect and 100 is complete control
[17] = 125 g ai/ha, 0 to 100 scale where 0 is no effect and 100 is complete control
[18] = 16 g ai/ha, scale 0 to 100 (0 no effect, 100 complete control)
[19] = 125 g ai/ha, scale 0 (no effect) to 100 (complete control)
[20] = Preemergence, 62 g ai/ha, scale 0 to 100, 0 no effect, 100 complete control

## Fc1cnc(Oc2ccccc2-n2cc(Br)cn2)nc1 [Compound 10, 2-[2-(4-bromo-1H-pyrazol-1-yl)phenoxy]-5-fluoropyrimidine]
[1]; Ipomoea, pre-emergence, 240 h, 125 g ai/ha, 0 to 100 scale where 0 is no effect and 100 is complete control, read-out: Morningglory plant response rating
  pest or weed control at 125 g/ha: 40%
[1]; Ipomoea, pre-emergence, 240 h, 500 g ai/ha, 0 to 100 scale, 0 no effect, 100 complete control, approx. 10 days, read-out: Morningglory plant response rating
  pest or weed control at 500 g/ha: 60%
[2]; Abutilon theophrasti, pre-emergence, 240 h, 125 g ai/ha, 0 to 100 scale where 0 is no effect and 100 is complete control, read-out: Velvetleaf plant response rating
  pest or weed control at 125 g/ha: 100%
[2]; Abutilon theophrasti, pre-emergence, 240 h, 500 g ai/ha, 0 to 100 scale, 0 no effect, 100 complete control, approx. 10 days, read-out: Velvetleaf plant response rating
  pest or weed control at 500 g/ha: 100%
[3]; Triticum aestivum, pre-emergence, 240 h, 125 g ai/ha, 0 to 100 scale where 0 is no effect and 100 is complete control, read-out: Wheat plant response rating
  plant injury at 125 g/ha: 0%
[3]; Triticum aestivum, pre-emergence, 240 h, 500 g ai/ha, 0 to 100 scale, 0 no effect, 100 complete control, approx. 10 days, read-out: Wheat plant response rating
  plant injury at 500 g/ha: 20%
[4]; Ipomoea, post-emergence, 240 h, 125 g ai/ha, 0 to 100 scale where 0 is no effect and 100 is complete control, read-out: Plant response rating, Morningglory
  pest or weed control at 125 g/ha: 90%
[4]; Ipomoea, post-emergence, 240 h, 500 g ai/ha, 0 to 100 scale, 0 no effect, 100 complete control, read-out: Plant response rating Morningglory
  pest or weed control at 500 g/ha: 100%
[5]; Abutilon theophrasti, post-emergence, 240 h, 125 g ai/ha, 0 to 100 scale where 0 is no effect and 100 is complete control, read-out: Plant response rating, Velvetleaf
  pest or weed control at 125 g/ha: 100%
[5]; Abutilon theophrasti, post-emergence, 240 h, 500 g ai/ha, 0 to 100 scale, 0 no effect, 100 complete control, read-out: Plant response rating Velvetleaf
  pest or weed control at 500 g/ha: 100%
[6]; Triticum aestivum, post-emergence, 240 h, 125 g ai/ha, 0 to 100 scale where 0 is no effect and 100 is complete control, read-out: Plant response rating, Wheat
  plant injury at 125 g/ha: 0%
[6]; Triticum aestivum, post-emergence, 240 h, 500 g ai/ha, 0 to 100 scale, 0 no effect, 100 complete control, read-out: Plant response rating Wheat
  plant injury at 500 g/ha: 60%
[7]; Cyperus difformis, read-out: Plant response rating, Sedge, Umbrella
  pest or weed control at 250 g/ha: 50%
[8]; Heteranthera limosa, read-out: Plant response rating, Ducksalad
  pest or weed control at 250 g/ha: 75%
[9]; 125 g ai/ha, postemergence, read-out: Plant response rating (0 to 100), Pigweed
  pest or weed control at 125 g/ha: 100%
[9]; 250 g ai/ha, postemergence, read-out: Plant response rating (0 to 100), Pigweed
  pest or weed control at 250 g/ha: 100%
[9]; Postemergence, 31 g ai/ha, scale 0 to 100 (0 no effect, 100 complete control), 13 to 15 days, read-out: Plant response rating, Pigweed
  pest or weed control at 31 g/ha: 75%
[9]; Postemergence, 62 g ai/ha, scale 0 to 100 (0 no effect, 100 complete control), read-out: Plant response rating, Pigweed
  pest or weed control at 62 g/ha: 98%

## CCOc1cnn(-c2ccccc2Oc2ncc(Cl)cn2)c1 [Compound 187]
[1]; 125 g ai/ha
  Morningglory plant response rating (0 to 100 scale): 0
[1]; [16]
  Morningglory plant response rating: 50
[2]; 125 g ai/ha
  Velvetleaf plant response rating (0 to 100 scale): 80
[2]; [16]
  Velvetleaf plant response rating: 100
[3]; 125 g ai/ha
  Wheat plant response rating (0 to 100 scale): 0
[3]; [16]
  Wheat plant response rating: 40
[4]; [17]
  Morningglory plant response rating: 70
[4]; [16]
  Plant response rating, Morningglory: 100
[5]; [17]
  Velvetleaf plant response rating: 100
[5]; [16]
  Plant response rating, Velvetleaf: 100
[6]; [17]
  Wheat plant response rating: 20
[6]; [16]
  Plant response rating, Wheat: 60
[7]
  Plant response rating, Sedge, Umbrella: 50
[8]
  Plant response rating, Ducksalad: 65
[10]; [18]
  Blackgrass plant response rating: 0
[10]; [19]
  Blackgrass plant response rating: 100
[10]; [20]
  Plant response rating, Blackgrass: 30
[11]; [18]
  Ryegrass, Italian plant response rating: 0
[11]; [19]
  Ryegrass, Italian plant response rating: 5
[11]; [20]
  Plant response rating, Ryegrass, Italian: 0
[12]; [18]
  Wheat plant response rating: 0
[12]; [19]
  Wheat plant response rating: 0
[12]; [20]
  Plant response rating, Wheat: 0
[13]; [18]
  Johnsongrass plant response rating: 0
[13]; [19]
  Johnsongrass plant response rating: 45
[13]; [20]
  Plant response rating, Johnsongrass: 30
[14]; [18]
  Ragweed plant response rating: 55
[14]; [19]
  Ragweed plant response rating: 55
[14]; [20]
  Plant response rating, Ragweed: 45
[15]; [18]
  Velvetleaf plant response rating: 25
[15]; [19]
  Velvetleaf plant response rating: 100
[15]; [20]
  Plant response rating, Velvetleaf: 95
